According to patent US20140057311A1, “Device For High Throughput Investigations Of Multi-Cellular Interactions” (priority 2010, published 2014):

System: MDA-MB 231 human breast carcinoma cells
Assay: Tumor cell migration direction under interstitial flow in 3D collagen I gel
Format: cell-based
Conditions: Src kinase inhibited with PP2
From the text: Cell culture system design and verification of interstitial flow field. A microfluidic cell culture system to culture breast cancer cells (MDA-MB 231) in a 3D collagen I matrix and to subject these cells to a controlled level of interstitial flow was employed. The system consists of two channels separated by a region containing single cells suspended in collagen I gel (FIG. 16A). By applying a hydrostatic pressure gradient across the gel region, a consistent flow field is generated. FEM software was used to solve Brinkman's equation for flow through porous medium for our system geometry (FIG. 16B). […] From the bead tracking data, the hydraulic permeability of 2 mg/ml collagen I gel was determined to be 1.55×10-13 m2, similar to previously published values.
Interstitial flow induced a directional bias in cellular migration. […] To quantify the migration direction of cell populations, two metrics are presented. […] To determine directional bias of migration along streamlines, a “directional migration metric” was computed that scored cells with a +1 if they migrated in the direction of flow and a −1 if they migrated against the flow (FIG. 17E). […]
Cells were incubated overnight at 37° C. […] Devices were allowed to reach thermal equilibrium at 37° C. before imaging (see Supplementary Methods in SI Appendix for details on imaging and data quantification). […]

CC(C)(C)n1nc(-c2ccc(Cl)cc2)c2c(N)ncnc21 [PP2]
direction of cell migration under interstitial flow: cells migrated randomly, with no biased migration upstream or downstream
